{"source": "patent US8192962B2", "about": "“Processes for detecting toxic substances” (Daikin Industries, Ltd., priority 2001, dated 2012)", "tested_on": "Genes belonging to other category", "assay": "DNA chip mRNA expression in yeast, genes belonging to other category (Table 9)", "assay_type": "cell-based, Saccharomyces cerevisiae S288C", "experimental": "Yeast (Saccharomyces cerevisiae S288C (α SUC2mal mel gap2 CUP1)) were incubated at 25° C. on YPD medium (yeast extract 1%, polypepton 2%, glucose 2%). One of toxic chemical substances was added to the cells at logarithmic growth phase, and the cells were further incubated for two hours. Cells were cultured without any chemical substance in the same condition, and were used as control. Concentrations of the chemical substances were defined to inhibit the growth of the yeast but not lead to death.\nAfter completion of the incubation, the culture was centrifuged to collect the cells. To the cells, sodium acetate buffer (50 mM sodium acetate, 10 mM EDTA, 1% SDS) was added, and the mixture was shaken at 65° C. for five minutes, followed by returning to room temperature, and obtaining the supernatant, of which the procedures were repeated two times. To the supernatant, ½ amount of a solution of phenol/chloroform was added, and the mixture was centrifuged to give a supernatant, which was added with an equal amount of chloroform, and the mixture was centrifuged to give a supernatant. To the supernatant, an equal amount of isopropanol containing 0.3 M sodium acetate was added, and the mixture was allowed to stand at room temperature for 30 minutes, after which the mixture was centrifuged to give a sediment of the whole RNAs. Seventy % ethanol was added to the sediment, and the mixture was again centrifuged to give a sediment, which was then dried and dissolved in water. mRNA was isolated from the whole RNAs as followings. In view of the fact that a poly A chain is attached to the 3′ terminus of mRNA, a polynucleotide having a poly T structure which was immobilized on the surface of latex beads was used to trap the mRNA, and then the mRNA was washed and eluted with spine column (Oligotex-dT30<Super>mRNA Purification Kit, Takara). Reverse transcription of the mRNA was conducted with a reverse transcriptase (Super Script II Reverse Transcriptase; catalogue No. 18064-014, GibcoBRL) using fluorescence-labeled nucleotides to give cDNAs that were introduced with Cy3-dUTP or Cy5-dUTP during the reverse transcription.\nThe labeled cDNAs were dissolved in TE buffer (10mM Tris-HCl/1 mM EDTA, pH8.0), and the solution was dropped on the DNA chip containing the whole genes of yeast (DNA Chip Research Inc. Japan) so that the cDNAs were hybridized on the DNA chip at 65° C. for over 12 hours. The fluoresces intensity of the DNA chip was read with a scanner, and the ratio relative to the fluorescence intensity resulting from the absence of chemical substance was estimated as the following, which is shown in Tables 1 to 9: […]", "data": [{"smiles": "Oc1cc(Cl)c(Cl)cc1Cl", "note": "[(6), 2,4,5-trichlorophenol]", "values": [{"measurement": "The level of expressed mRNA in the presence of chemical substance/The level of expressed mRNA in the absence of chemical substance", "setting": "yeast gene YAR010C", "value": 2.3}, {"measurement": "The level of expressed mRNA in the presence of chemical substance/The level of expressed mRNA in the absence of chemical substance", "setting": "yeast gene YBL005W-A", "value": 1.2}, {"measurement": "The level of expressed mRNA in the presence of chemical substance/The level of expressed mRNA in the absence of chemical substance", "setting": "yeast gene YBL041W", "value": 1.7}, {"measurement": "The level of expressed mRNA in the presence of chemical substance/The level of expressed mRNA in the absence of chemical substance", "setting": "yeast gene YBL043W", "value": 26.9}, {"measurement": "The level of expressed mRNA in the presence of chemical substance/The level of expressed mRNA in the absence of chemical substance", "setting": "yeast gene YBL078C", "value": 2.4}, {"measurement": "The level of expressed mRNA in the presence of chemical substance/The level of expressed mRNA in the absence of chemical substance", "setting": "yeast gene YBL101W-A", "value": 1.4}, {"measurement": "The level of expressed mRNA in the presence of chemical substance/The level of expressed mRNA in the absence of chemical substance", "setting": "yeast gene YBR170C", "value": 1.4}, {"measurement": "The level of expressed mRNA in the presence of chemical substance/The level of expressed mRNA in the absence of chemical substance", "setting": "yeast gene YBR173C", "value": 1.3}, {"measurement": "The level of expressed mRNA in the presence of chemical substance/The level of expressed mRNA in the absence of chemical substance", "setting": "yeast gene YBR212W", "value": 1.4}, {"measurement": "The level of expressed mRNA in the presence of chemical substance/The level of expressed mRNA in the absence of chemical substance", "setting": "yeast gene YBR214W", "value": 0.8}, {"measurement": "The level of expressed mRNA in the presence of chemical substance/The level of expressed mRNA in the absence of chemical substance", "setting": "yeast gene YCL020W", "value": 1.0}, {"measurement": "The level of expressed mRNA in the presence of chemical substance/The level of expressed mRNA in the absence of chemical substance", "setting": "yeast gene YCL027W", "value": 1.3}, {"measurement": "The level of expressed mRNA in the presence of chemical substance/The level of expressed mRNA in the absence of chemical substance", "setting": "yeast gene YCR004C", "value": 1.8}, {"measurement": "The level of expressed mRNA in the presence of chemical substance/The level of expressed mRNA in the absence of chemical substance", "setting": "yeast gene YCR069W", "value": 1.4}, {"measurement": "The level of expressed mRNA in the presence of chemical substance/The level of expressed mRNA in the absence of chemical substance", "setting": "yeast gene YCR071C", "value": 2.5}, {"measurement": "The level of expressed mRNA in the presence of chemical substance/The level of expressed mRNA in the absence of chemical substance", "setting": "yeast gene YCR088W", "value": 2.0}, {"measurement": "The level of expressed mRNA in the presence of chemical substance/The level of expressed mRNA in the absence of chemical substance", "setting": "yeast gene YCR106W", "value": 1.4}, {"measurement": "The level of expressed mRNA in the presence of chemical substance/The level of expressed mRNA in the absence of chemical substance", "setting": "yeast gene YDL008W", "value": 2.7}, {"measurement": "The level of expressed mRNA in the presence of chemical substance/The level of expressed mRNA in the absence of chemical substance", "setting": "yeast gene YDL018C", "value": 1.4}, {"measurement": "The level of expressed mRNA in the presence of chemical substance/The level of expressed mRNA in the absence of chemical substance", "setting": "yeast gene YDL143W", "value": 1.0}, {"measurement": "The level of expressed mRNA in the presence of chemical substance/The level of expressed mRNA in the absence of chemical substance", "setting": "yeast gene YDL220C", "value": 1.8}, {"measurement": "The level of expressed mRNA in the presence of chemical substance/The level of expressed mRNA in the absence of chemical substance", "setting": "yeast gene YDL230W", "value": 0.9}, {"measurement": "The level of expressed mRNA in the presence of chemical substance/The level of expressed mRNA in the absence of chemical substance", "setting": "yeast gene YDL238C", "value": 2.1}, {"measurement": "The level of expressed mRNA in the presence of chemical substance/The level of expressed mRNA in the absence of chemical substance", "setting": "yeast gene YDR055W", "value": 3.9}, {"measurement": "The level of expressed mRNA in the presence of chemical substance/The level of expressed mRNA in the absence of chemical substance", "setting": "yeast gene YDR084C", "value": 2.1}, {"measurement": "The level of expressed mRNA in the presence of chemical substance/The level of expressed mRNA in the absence of chemical substance", "setting": "yeast gene YDR085C", "value": 2.1}, {"measurement": "The level of expressed mRNA in the presence of chemical substance/The level of expressed mRNA in the absence of chemical substance", "setting": "yeast gene YDR104C", "value": 1.7}, {"measurement": "The level of expressed mRNA in the presence of chemical substance/The level of expressed mRNA in the absence of chemical substance", "setting": "yeast gene YDR115W", "value": 2.3}, {"measurement": "The level of expressed mRNA in the presence of chemical substance/The level of expressed mRNA in the absence of chemical substance", "setting": "yeast gene YDR212W", "value": 1.4}, {"measurement": "The level of expressed mRNA in the presence of chemical substance/The level of expressed mRNA in the absence of chemical substance", "setting": "yeast gene YDR259C", "value": 0.5}, {"measurement": "The level of expressed mRNA in the presence of chemical substance/The level of expressed mRNA in the absence of chemical substance", "setting": "yeast gene YDR264C", "value": 1.8}, {"measurement": "The level of expressed mRNA in the presence of chemical substance/The level of expressed mRNA in the absence of chemical substance", "setting": "yeast gene YDR315C", "value": 9.4}, {"measurement": "The level of expressed mRNA in the presence of chemical substance/The level of expressed mRNA in the absence of chemical substance", "setting": "yeast gene YDR358W", "value": 2.5}, {"measurement": "The level of expressed mRNA in the presence of chemical substance/The level of expressed mRNA in the absence of chemical substance", "setting": "yeast gene YDR388W", "value": 1.0}, {"measurement": "The level of expressed mRNA in the presence of chemical substance/The level of expressed mRNA in the absence of chemical substance", "setting": "yeast gene YDR403W", "value": 1.1}, {"measurement": "The level of expressed mRNA in the presence of chemical substance/The level of expressed mRNA in the absence of chemical substance", "setting": "yeast gene YDR432W", "value": 0.6}, {"measurement": "The level of expressed mRNA in the presence of chemical substance/The level of expressed mRNA in the absence of chemical substance", "setting": "yeast gene YDR481C", "value": 0.9}, {"measurement": "The level of expressed mRNA in the presence of chemical substance/The level of expressed mRNA in the absence of chemical substance", "setting": "yeast gene YDR510W", "value": 1.0}, {"measurement": "The level of expressed mRNA in the presence of chemical substance/The level of expressed mRNA in the absence of chemical substance", "setting": "yeast gene YEL042W", "value": 0.5}, {"measurement": "The level of expressed mRNA in the presence of chemical substance/The level of expressed mRNA in the absence of chemical substance", "setting": "yeast gene YEL066W", "value": 2.2}, {"measurement": "The level of expressed mRNA in the presence of chemical substance/The level of expressed mRNA in the absence of chemical substance", "setting": "yeast gene YER021W", "value": 1.1}]}]}
